Literature values as cited in patent publication US10773080B2, “External trigeminal nerve stimulation for the acute non-invasive treatment of migraine attacks” (Cefaly Technology Sprl, priority 2017, dated 2020).

What was measured:
[1] = tested on: migraine; conditions: in vivo
[2] = tested on: migraine; conditions: literature data; for Pain freedom at 2 h: percentage of patients

SMILES | Mean pain score reductions at two hours [1] | Reduction in mean pain VAS scores at one hour [1] | Nausea freedom at 2 h ([2]; irrespective of MBS) | Phonophobia freedom at 2 h ([2]; irrespective of MBS) | Photophobia freedom at 2 h ([2]; irrespective of MBS) | At least one treatment-emergent adverse effect [2] | Pain relief at 2 h [2] | Sustained pain freedom at 24 h [2] | Pain freedom at 2 h [2] | Vomiting freedom at 2 h ([2]; irrespective of MBS) | Use of rescue medication between 2 h and 24 h [2]
CNS(=O)(=O)Cc1ccc2[nH]cc(CCN(C)C)c2c1 [sumatriptan] | 40.0% | 17.1% |  |  |  |  |  |  |  |  | 
C[C@@H]1[C@H](c2ccccc2)C[C@H](NC(=O)c2cnc3c(c2)C[C@@]2(C3)C(=O)Nc3ncccc32)C(=O)N1CC(F)(F)F [[F], Ubrogepant] |  |  | 70.6% | 60.8% | 54.9% | 29.4% | 58.8% | 21.6% | 25.5% |  | 
O=C(O)Cc1ccccc1Nc1c(Cl)cccc1Cl [diclofenac] | 50.5% | 26.8% |  |  |  |  |  |  |  |  | 
CN1CCC(C(=O)c2cccc(NC(=O)c3c(F)cc(F)cc3F)n2)CC1 [[B], Lasmiditan] |  |  | ~26% | ~30% | ~38% | 84% | 65% |  | 28% | ~5% | 42%
